Laboratory results taken from ChEMBL document CHEMBL1201861, “Genomics of Drug Sensitity in Cancer screening data, Wellcome Trust Sanger Institute”.

Assays:
Test in all cases: cells
[1] = test system: SN12C; format: functional, cell-based; details: Homo sapiens;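 further: growth inhibition of human SN12C cells, measured by a cell viability assay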
Description: SANGER: Inhibition of human SN12C cell growth in a cell viability assay.

[2] = test system: OAW-28; format: functional, cell-based; details: Homo sapiens;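 further: growth inhibition of OAW-28 cells, read out with a cell viability assay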
Description: SANGER: Inhibition of human OAW-28 cell growth in a cell viability assay.

[3] = test system: HCC1419; format: functional, cell-based; details: Homo sapiens;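 further: growth inhibition of human HCC1419 cells, read out as cell viability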
Description: SANGER: Inhibition of human HCC1419 cell growth in a cell viability assay.

[4] = test system: SCC-9; format: functional, cell-based; details: Homo sapiens;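 further: Read-out is a cell viability assay, with values giving inhibition of cell growth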
Description: SANGER: Inhibition of human SCC-9 cell growth in a cell viability assay.

[5] = test system: A204; format: functional, cell-based; details: Homo sapiens;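 further: growth inhibition of human A204 cells, read out with a cell viability assay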
Description: SANGER: Inhibition of human A204 cell growth in a cell viability assay.

[6] = test system: DMS-273; format: functional, cell-based; details: Homo sapiens
Description: SANGER: Inhibition of human DMS-273 cell growth in a cell viability assay.

[7] = test system: G-402; format: functional, cell-based; details: Homo sapiens
Description: SANGER: Inhibition of human G-402 cell growth in a cell viability assay.

[8] = test system: C32; format: functional, cell-based; details: Homo sapiens;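 further: cell viability assay, with IC50 reflecting inhibition of C32 cell growth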
Description: SANGER: Inhibition of human C32 cell growth in a cell viability assay.

[9] = test system: HCC38; format: functional, cell-based; details: Homo sapiens;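 further: cell viability assay on the human HCC38 cell line, with IC50 marking the concentration that inhibits cell growth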
Description: SANGER: Inhibition of human HCC38 cell growth in a cell viability assay.

[10] = test system: SW1463; format: functional, cell-based; details: Homo sapiens;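 further: growth inhibition of SW1463 cells, determined with a cell viability assay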
Description: SANGER: Inhibition of human SW1463 cell growth in a cell viability assay.

[11] = test system: DoTc2-4510; format: functional, cell-based; details: Homo sapiens
[12] = test system: MKN-7; format: functional, cell-based; details: Homo sapiens;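 further: growth inhibition of MKN-7 cells, read out with a cell viability assay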
Description: SANGER: Inhibition of human MKN7 cell growth in a cell viability assay.

[13] = test system: RPMI-7951; format: functional, cell-based; details: Homo sapiens
Description: SANGER: Inhibition of human RPMI-7951 cell growth in a cell viability assay.

[14] = test system: SK-OV-3; format: functional, cell-based; details: Homo sapiens;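 further: growth inhibition of SK-OV-3 human cells, read out with a cell viability assay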
Description: SANGER: Inhibition of human SK-OV-3 cell growth in a cell viability assay.

[15] = test system: HuO-3N1; format: functional, cell-based; details: Homo sapiens;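 further: cell viability readout used to measure how strongly compounds suppress proliferation of human HuO-3N1 cells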
Description: SANGER: Inhibition of human HuO-3N1 cell growth in a cell viability assay.

[16] = test system: HCT-116; format: functional, cell-based; details: Homo sapiens
Description: SANGER: Inhibition of human HCT-116 cell growth in a cell viability assay.

[17] = test system: MDA-MB-453; format: functional, cell-based; details: Homo sapiens
Description: SANGER: Inhibition of human MDA-MB-453 cell growth in a cell viability assay.

[18] = test system: NCI-H630; format: functional, cell-based; details: Homo sapiens;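 further: growth inhibition of NCI-H630 cells, read out with a cell viability assay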
Description: SANGER: Inhibition of human NCI-H630 cell growth in a cell viability assay.

[19] = test system: NCI-H2452; format: functional, cell-based; details: Homo sapiens;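 further: growth inhibition of NCI-H2452 cells, read out with a cell viability assay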
Description: SANGER: Inhibition of human NCI-H2452 cell growth in a cell viability assay.

[20] = test system: NCI-H2405; format: functional, cell-based; details: Homo sapiens;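 further: growth inhibition of the human cell line, read out with a cell viability assay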
Description: SANGER: Inhibition of human NCI-H2405 cell growth in a cell viability assay.

[21] = test system: BCPAP; format: functional, cell-based; details: Homo sapiens;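 further: growth inhibition of BCPAP cells, read out in a cell viability assay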
Description: SANGER: Inhibition of human BCPAP cell growth in a cell viability assay.

[22] = test system: UMC-11; format: functional, cell-based; details: Homo sapiens;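 further: growth inhibition of UMC-11 cells, read out with a cell viability assay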
Description: SANGER: Inhibition of human UMC-11 cell growth in a cell viability assay.

[23] = test system: BT-20; format: functional, cell-based; details: Homo sapiens;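 further: cell viability assay measuring suppression of growth in human BT-20 cells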
Description: SANGER: Inhibition of human BT-20 cell growth in a cell viability assay.

[24] = test system: C-33-A; format: functional, cell-based; details: Homo sapiens;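 further: cell viability assay measuring growth inhibition of C-33-A cells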
Description: SANGER: Inhibition of human C-33-A cell growth in a cell viability assay.

[25] = test system: NCI-H441; format: functional, cell-based; details: Homo sapiens;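 further: growth inhibition of NCI-H441 cells, read out with a cell viability assay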
Description: SANGER: Inhibition of human NCI-H441 cell growth in a cell viability assay.

[26] = test system: NCI-H596; format: functional, cell-based; details: Homo sapiens;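 further: growth inhibition of NCI-H596 cells, read out with a cell viability assay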
Description: SANGER: Inhibition of human NCI-H596 cell growth in a cell viability assay.

[27] = test system: DOK; format: functional, cell-based; details: Homo sapiens;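 further: cell viability assay read-out, values reflect inhibition of cell growth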
Description: SANGER: Inhibition of human DOK cell growth in a cell viability assay.

[28] = test system: NCI-H28; format: functional, cell-based; details: Homo sapiens;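 further: growth inhibition of human NCI-H28 cells, read out as cell viability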
Description: SANGER: Inhibition of human NCI-H28 cell growth in a cell viability assay.

[29] = test system: SiHa; format: functional, cell-based; details: Homo sapiens;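 further: Viability-based readout of growth inhibition in SiHa cells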
Description: SANGER: Inhibition of human SiHa cell growth in a cell viability assay.

[30] = test system: NCI-H2052; format: functional, cell-based; details: Homo sapiens;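 further: growth inhibition of NCI-H2052 cells, read out with a cell viability assay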
Description: SANGER: Inhibition of human NCI-H2052 cell growth in a cell viability assay.

[31] = test system: NB17; format: functional, cell-based, Homo sapiens; details: Homo sapiens, NB17;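 further: growth inhibition of NB17 cells, read out with a cell viability assay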
Description: SANGER: Inhibition of human NB17 cell growth in a cell viability assay.

[32] = test system: AU565; format: functional, cell-based; details: Homo sapiens;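 further: cell viability assay measuring growth inhibition of human AU565 cells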
Description: SANGER: Inhibition of human AU565 cell growth in a cell viability assay.

[33] = test system: HOS; format: functional, cell-based; details: Homo sapiens;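 further: growth inhibition of human HOS cells, read out with a cell viability assay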
Description: SANGER: Inhibition of human HOS cell growth in a cell viability assay.

[34] = test system: HT-1376; format: functional, cell-based; details: Homo sapiens
Description: SANGER: Inhibition of human HT-1376 cell growth in a cell viability assay.

[35] = test system: EFO-27; format: functional, cell-based; details: Homo sapiens;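 further: growth inhibition of EFO-27 cells, read out with a cell viability assay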
Description: SANGER: Inhibition of human EFO-27 cell growth in a cell viability assay.

[36] = test system: IGROV-1; format: functional, cell-based; details: Homo sapiens;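 further: reduction of IGROV-1 cell growth, read out with a viability assay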
Description: SANGER: Inhibition of human IGROV-1 cell growth in a cell viability assay.

[37] = test system: MC-IXC; format: functional, cell-based; details: Homo sapiens;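 further: growth inhibition of MC-IXC cells, read out with a cell viability assay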
Description: SANGER: Inhibition of human MC-IXC cell growth in a cell viability assay.

[38] = test system: BHY; format: functional, cell-based; details: Homo sapiens;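 further: cell growth inhibition read out by a viability assay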
Description: SANGER: Inhibition of human BHY cell growth in a cell viability assay.

[39] = test system: CAL-39; format: functional, cell-based; details: Homo sapiens;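 further: cell viability assay measuring growth inhibition of CAL-39 cells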
Description: SANGER: Inhibition of human CAL-39 cell growth in a cell viability assay.

[40] = test system: OAW-42; format: functional, cell-based; details: Homo sapiens;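 further: growth inhibition of OAW-42 cells, read out with a cell viability assay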
Description: SANGER: Inhibition of human OAW-42 cell growth in a cell viability assay.

| Structure (SMILES) | IC50 [1] [µM] | IC50 [2] [µM] | IC50 [3] [µM] | IC50 [4] [µM] | IC50 [5] [µM] | IC50 [6] [µM] | IC50 [7] [µM] | IC50 [8] [µM] | IC50 [9] [µM] | IC50 [10] [µM] | IC50 [11] [µM] | IC50 [12] [µM] | IC50 [13] [µM] | IC50 [14] [µM] | IC50 [15] [µM] | IC50 [16] [µM] | IC50 [17] [µM] | IC50 [18] [µM] | IC50 [19] [µM] | IC50 [20] [µM] | further results |
| --- | --- | --- | --- | --- | --- | --- | --- | --- | --- | --- | --- | --- | --- | --- | --- | --- | --- | --- | --- | --- | --- |
| O=C1NC(=O)c2c1c(-c1ccccc1Cl)cc1[nH]c3ccc(O)cc3c21 | > 2 | > 2 | > 2 | > 2 | > 2 | > 2 | > 2 | 1.53 | > 2 | > 2 | > 2 | > 2 | > 2 | > 2 | > 2 | > 2 | > 2 | 1.93 | > 2 | > 2 | IC50 [21]: > 2 µM; IC50 [22]: > 2 µM; IC50 [23]: > 2 µM; IC50 [24]: > 2 µM; IC50 [25]: > 2 µM; IC50 [26]: > 2 µM; IC50 [27]: 1.24 µM; IC50 [28]: > 2 µM; IC50 [29]: > 2 µM; IC50 [30]: > 2 µM; IC50 [31]: > 2 µM; IC50 [32]: > 2 µM; IC50 [33]: > 2 µM; IC50 [34]: > 2 µM; IC50 [35]: > 2 µM; IC50 [36]: > 2 µM; IC50 [37]: > 2 µM; IC50 [38]: 1.15 µM; IC50 [39]: > 2 µM |
| O=C(NCCCNc1nc(Nc2cccc(NC(=O)N3CCCC3)c2)ncc1I)c1cccs1 [BX-795] | > 5 | > 5 | > 5 | > 5 | 1.15 | > 5 | 1.47 | 1.76 | > 5 | > 5 | > 5 | > 5 | 3.19 | > 5 | 2.6 | 4.99 | > 5 | > 5 | 4.83 | 4.68 | IC50 [40]: 3.66 µM; IC50 [21]: 2.23 µM; IC50 [22]: 2.9 µM; IC50 [23]: > 5 µM; IC50 [24]: > 5 µM; IC50 [25]: > 5 µM; IC50 [26]: > 5 µM; IC50 [27]: 4.36 µM; IC50 [28]: 2.85 µM; IC50 [29]: > 5 µM; IC50 [30]: > 5 µM; IC50 [31]: > 5 µM; IC50 [32]: > 5 µM; IC50 [33]: 1.57 µM; IC50 [34]: > 5 µM; IC50 [35]: > 5 µM; IC50 [36]: > 5 µM; IC50 [37]: 2.9 µM; IC50 [38]: > 5 µM; IC50 [39]: 4.31 µM |
| NC1(c2ccc(-c3nc4ccn5c(=O)[nH]nc5c4cc3-c3ccccc3)cc2)CCC1 [MK-2206] | > 4 | 2.3 | 0.489 | > 4 | 2.84 | 1.52 | 3.71 | > 4 | > 4 | > 4 | > 4 | > 4 | > 4 | > 4 | > 4 | > 4 | > 4 | > 4 | > 4 | > 4 | IC50 [40]: 0.887 µM; IC50 [21]: > 4 µM; IC50 [22]: > 4 µM; IC50 [23]: > 4 µM; IC50 [24]: > 4 µM; IC50 [25]: > 4 µM; IC50 [26]: > 4 µM; IC50 [27]: 3.23 µM; IC50 [28]: > 4 µM; IC50 [29]: > 4 µM; IC50 [30]: > 4 µM; IC50 [31]: > 4 µM; IC50 [32]: > 4 µM; IC50 [33]: 1.5 µM; IC50 [34]: > 4 µM; IC50 [35]: > 4 µM; IC50 [36]: 0.552 µM; IC50 [37]: > 4 µM; IC50 [38]: > 4 µM; IC50 [39]: > 4 µM |
| CC1(C)CCC(c2ccc(Cl)cc2)=C(CN2CCN(c3ccc(C(=O)NS(=O)(=O)c4ccc(N[C@H](CCN5CCOCC5)CSc5ccccc5)c(S(=O)(=O)C(F)(F)F)c4)cc3)CC2)C1 [NAVITOCLAX] | > 2 | 0.784 | > 2 | > 2 | > 2 | > 2 | > 2 | 1.19 | 0.802 | > 2 | > 2 | > 2 | > 2 | > 2 | > 2 | > 2 | > 2 | > 2 | > 2 | > 2 | IC50 [40]: 0.961 µM; IC50 [21]: > 2 µM; IC50 [22]: > 2 µM; IC50 [23]: > 2 µM; IC50 [24]: > 2 µM; IC50 [25]: > 2 µM; IC50 [26]: > 2 µM; IC50 [27]: > 2 µM; IC50 [28]: > 2 µM; IC50 [29]: > 2 µM; IC50 [30]: 1.72 µM; IC50 [31]: 0.0712 µM; IC50 [32]: > 2 µM; IC50 [33]: > 2 µM; IC50 [34]: > 2 µM; IC50 [35]: > 2 µM; IC50 [36]: > 2 µM; IC50 [37]: > 2 µM; IC50 [38]: > 2 µM; IC50 [39]: > 2 µM |
| CS(=O)(=O)N1CCN(Cc2cc3nc(-c4cccc5[nH]ncc45)nc(N4CCOCC4)c3s2)CC1 [PICTILISIB] | > 4 | > 4 | 2.21 | > 4 | 0.522 | 2.86 | 1.9 | 3.42 | > 4 | > 4 | > 4 | 2.71 | > 4 | > 4 | 0.642 | > 4 | > 4 | > 4 | > 4 | > 4 | IC50 [40]: 0.872 µM; IC50 [21]: > 4 µM; IC50 [22]: > 4 µM; IC50 [23]: 1.69 µM; IC50 [24]: > 4 µM; IC50 [25]: > 4 µM; IC50 [26]: > 4 µM; IC50 [27]: 0.302 µM; IC50 [28]: 3.05 µM; IC50 [29]: > 4 µM; IC50 [30]: > 4 µM; IC50 [31]: > 4 µM; IC50 [32]: 1.32 µM; IC50 [33]: 1.98 µM; IC50 [34]: > 4 µM; IC50 [35]: > 4 µM; IC50 [36]: 0.634 µM; IC50 [37]: > 4 µM; IC50 [38]: 3.26 µM; IC50 [39]: 2.03 µM |
| CN(C)CCOc1ccc(-c2nc(-c3ccncc3)c(-c3ccc4c(c3)CC/C4=N\O)[nH]2)cc1 [SB590885] | > 5 | > 5 | > 5 | > 5 | > 5 | > 5 | > 5 | 0.0996 | > 5 | > 5 | > 5 | > 5 | > 5 | > 5 | > 5 | > 5 | > 5 | > 5 | > 5 | > 5 | IC50 [40]: > 5 µM; IC50 [21]: > 5 µM; IC50 [22]: > 5 µM; IC50 [23]: > 5 µM; IC50 [24]: > 5 µM; IC50 [25]: > 5 µM; IC50 [26]: > 5 µM; IC50 [27]: > 5 µM; IC50 [28]: > 5 µM; IC50 [29]: > 5 µM; IC50 [30]: > 5 µM; IC50 [31]: > 5 µM; IC50 [32]: > 5 µM; IC50 [33]: > 5 µM; IC50 [34]: > 5 µM; IC50 [35]: > 5 µM; IC50 [36]: > 5 µM; IC50 [37]: > 5 µM; IC50 [38]: > 5 µM; IC50 [39]: > 5 µM |
